ChEMBL document CHEMBL1201862, “PubChem BioAssay data set” (2004)
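In this assay, cells in 96-well plates receive the compound at five concentrations for 48 hours. Endpoints are linearly interpolated between the surrounding concentrations. GI50 = concentration required for 50% inhibition of growth.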 Active and inactive are the calls of the source. Rule as the data show it: active = GI50 up to about 1.1 µM and inactive = higher.

Key:
Assay in all cases: DTP human tumour cell line panel, 48 h
[1] = system: 786-0
[2] = system: A498
[3] = system: A549
[4] = system: ACHN
[5] = system: CAKI-1
[6] = system: CCRF-CEM
[7] = system: COLO 205
[8] = system: DLD-1
[9] = system: DMS-114
[10] = system: DMS-273
[11] = system: EKVX
[12] = system: HCC 2998
[13] = system: HCT-116
[14] = system: HCT-15
[15] = system: HL-60
[16] = system: HOP-62
[17] = system: HOP-92
[18] = system: HT-29
[19] = system: IGROV-1
[20] = system: K562
[21] = system: KM-20L2
[22] = system: KM12
[23] = system: LOX IMVI
[24] = system: LXFL 529
[25] = system: M14
[26] = system: M19-MEL
[27] = system: MOLT-4
[28] = system: Malme-3M
[29] = system: NCI-H226
[30] = system: NCI-H23
[31] = system: NCI-H460
[32] = system: NCI-H522
[33] = system: OVCAR-3
[34] = system: OVCAR-4
[35] = system: OVCAR-5
[36] = system: OVCAR-8
[37] = system: RPMI-8226
[38] = system: RXF 393
[39] = system: RXF 631
[40] = system: SF-268
[41] = system: SF-295
[42] = system: SF-539
[43] = system: SK-MEL-28
[44] = system: SK-MEL-2
[45] = system: SK-MEL-5
[46] = system: SK-OV-3
[47] = system: SN12C
[48] = system: SNB-19
[49] = system: SNB-75
[50] = system: SNB-78
[51] = system: SW-620
[52] = system: TK-10
[53] = system: U-251
[54] = system: UACC-257
[55] = system: UACC-62
[56] = system: UO-31
[57] = system: XF498

With Cn1c2ccccc2c2[nH]cc3nc4ccccc4c-3c21 the GI50 [1] was > 100 µM (inactive), the GI50 [2] was 18.7 µM (inactive) and the GI50 [3] was 22.6 µM (inactive). For the same compound, the GI50 [4] was 20.4 µM (inactive), the GI50 [5] was 25.1 µM (inactive) and the GI50 [6] was 30.8 µM (inactive). For the same compound, the GI50 [7] was 16.9 µM (inactive), the GI50 [8] was > 100 µM (inactive) and the GI50 [9] was 22.9 µM (inactive). For the same compound, the GI50 [10] was 16.2 µM (inactive), the GI50 [11] was 9.71 µM (inactive) and the GI50 [12] was > 100 µM (inactive). For the same compound, the GI50 [13] was 12.6 µM (inactive), the GI50 [14] was 19.9 µM and the GI50 [15] was 20.6 µM (inactive). For the same compound, the GI50 [16] was > 100 µM (inactive), the GI50 [17] was 27.2 µM (inactive) and the GI50 [18] was 15.8 µM (inactive). The GI50 [19] was 18 µM (inactive), the GI50 [20] was 26.7 µM (inactive) and the GI50 [21] was 16.7 µM (inactive). For the same compound, the GI50 [22] was 17 µM (inactive), the GI50 [23] was 21.3 µM (inactive) and the GI50 [24] was 25.2 µM (inactive). The GI50 [25] was 17.9 µM (inactive), the GI50 [26] was 19.7 µM (inactive) and the GI50 [27] was 23.8 µM (inactive). The GI50 [28] was > 100 µM (inactive), the GI50 [29] was 22.4 µM (inactive) and the GI50 [30] was 17.1 µM (inactive). For the same compound, the GI50 [31] was 15.5 µM (inactive), the GI50 [32] was 13.5 µM (inactive) and the GI50 [33] was 17.1 µM (inactive). For the same compound, the GI50 [34] was 15.6 µM (inactive), the GI50 [35] was 19.2 µM (inactive) and the GI50 [36] was 20.3 µM (inactive). The GI50 [37] was 19.2 µM (inactive), the GI50 [38] was 16.1 µM (inactive) and the GI50 [39] was 29.5 µM (inactive). The GI50 [40] was 22.8 µM (inactive), the GI50 [41] was 22.1 µM (inactive) and the GI50 [42] was 18 µM (inactive). For the same compound, the GI50 [43] was 14.8 µM (inactive), the GI50 [44] was > 100 µM (inactive) and the GI50 [45] was 18.1 µM (inactive). For the same compound, the GI50 [46] was 24.3 µM (inactive), the GI50 [47] was 23.5 µM (inactive) and the GI50 [48] was 26.1 µM (inactive). The GI50 [49] was 19.5 µM (inactive), the GI50 [50] was 24.5 µM (inactive) and the GI50 [51] was 24.7 µM (inactive). The GI50 [52] was 22.3 µM (inactive), the GI50 [53] was 18.2 µM (inactive) and the GI50 [54] was 22.3 µM (inactive). For the same compound, the GI50 [55] was 18.5 µM (inactive), the GI50 [56] was 13 µM (inactive) and the GI50 [57] was 17.4 µM (inactive).
